Data taken from US20240091242A1, “LIPIDS THAT REDUCE LUNG DAMAGE, IMPROVE PULMONARY FUNCTION AND DECREASE PRO-INFLAMMATORY CYTOKINES” (Signpath Pharma, Inc., priority 2021, published 2024).
“Also recorded” adds a separate entry of the source.

What was measured:
[1] = system: murine LPS ARDS model; assay: Body weight and lung weight, murine LPS ARDS model; type: in vivo, mouse; settings: for body weight loss: 72-hour study
Protocol: C57B16/N mice were obtained from Charles River Laboratories (Montreal, Quebec). Male mice, 20-25 g of body weight, were used throughout the studies. Animals were housed in specific pathogen[…]free conditions, and all experiments were approved by Institutional Animal Care and Use Committee (IPST_SL20200402-1). Animal studies are reported in compliance with […] guidelines.
(§1) In the ARDS group, mice received Escherichia coli O111:B4 lipopolysaccharide (50 μg in 0.05 mL saline, i.t.), while, in the control group, the animals received an instillation of saline (0.05 mL, i.t.). For intratracheal instillation, mice were slightly anesthetized with isoflurane.
(§2) The lipid SPPCT-800 was dissolved in water (low dose—2 mg/ml; high dose—20 mg/ml). For the 24-hour study, two treatment approaches were used. Mice received a single dose of SPPCT-800 (200 mg/kg, per gavage) as prevention (30 minutes before the LPS instillation), or as a single dose of either 20 mg/kg or 200 mg/kg as therapy (3-hour after the LPS instillation). For the 72-hour study, mice received a total of 8 treatments of SPPCT-800 (200 mg/kg) starting at 3-hour after the LPS instillation. Disease progression in mice was assessed by the evaluation of pulmonary functions, blood oxygen saturation, and body weight change. On the terminal day of each study (24 hours or 72 hours), measurement of cytokine levels in the plasma and BALF, and histopathology evaluations were done.
(§3) Statistical Analysis. Results are expressed as means±SEM. Comparisons were made on normally distributed data using ANOVA, followed by a Fisher post hoc test to assess the difference between LPS+vehicle group with GraphPad Prism Software version 8.0 (San Diego, CA, USA). Differences were considered statistically significant when P values were less than 0.05. (* Shown difference versus Sham animals and # shown difference versus LPS+Vehicle group. * Means P<0.05, ** P<0.01, *** P<0.001 while # means P<0.05, ##P<0.01 and ###P<0.001).

[2] = system: murine LPS ARDS model; assay: Respiratory functions by whole-body plethysmograph, murine LPS ARDS model; type: in vivo, mouse; settings: P<0.001
Protocol: as §1, §2
Respiratory Functions. All mice were introduced to the plethysmograph chamber environment. After the acclimatization period, the functional respiratory parameters were assessed by the whole-body plethysmograph (VivoFlow, SCIREQ, Montreal, Canada) at 0 hour (baseline), at 24-hour post-LPS instillation, and at 48 and 72-hour post-LPS instillation. Each measurement was performed with the mouse placed alone in an unrestrained whole-body plethysmography (WBP) chamber to measure respiratory functions. The WBP trace allowed us to determine specific information regarding the breathing pattern, and to derive important information associated with the development of inflammation. The functional respiratory parameters analyzed included respiratory rate, PenH (pulmonary congestion index), and inspiratory/expiratory time measurements. PenH, was used as an index of edema, inflammation and congestion (broncho-restriction).^24
as §3

[3] = system: murine LPS ARDS model; assay: BALF protein content and cell counts, murine LPS ARDS model; type: in vivo, mouse
Protocol: as §1, §2
Differential Cell Counts in BALF. The left lung was clamped while 0.9 mL of cold PBS 1×, Protease Inhibitor 1× (SigmaFast®) solution (3×300 μL) was injected so bronchoalveolar lavage fluid (BALF) from the right lobe of the lungs could be collected. The protein assay was performed according to the manufacturer's instruction BCA Protein Assay (Pierce™-#23227). Briefly, a dilution factor of 5 was used (1 part of BALF: 4 part of PBS 1×). 10 μL, of the diluted sample was added into the microplate wells. 200 μL of the working reagent was added into each well. The plate was covered, incubated at 37° C. for 30 minutes. After a cool-down period, the absorbance at 562 nm was rapidly measured using a monochromatic spectrophotometer (SpectraMAX ® plus—Molecular Devices). The total BALF protein content was reported by multiplying the protein concentration by the dilution factor, and then multiplying by the total of BALF volume collected.
as §3

[4] = system: murine LPS ARDS model; assay: Overall efficacy in the murine LPS ARDS model; type: in vivo, mouse
Protocol: To investigate the role of the lipids of the present invention, such as SPPCT-800, as a treatment for ARDS, the inventors used a murine LPS model to measure histologic changes, lung and body weights, oxygen blood saturations and other pulmonary function parameters, BALF protein and cell counts, and pro-inflammatory cytokine levels in the plasma and BALF.
as §1
as §2, with “On the terminal day of each study (24 hours or 72 hours), measurement of cytokine levels in the plasma and BALF, and histopathology evaluations were done.” left out

[5] = Toxicity (non-toxic dose); settings: in vivo

With `CCCCCCCCCCCCCC(=O)OCC(COP(=O)([O-])OCC(COC(=O)CCC)OC(=O)CCC)OC(=O)CCCCCCCCCCCCC.CCCCCCCCCCCCCC(=O)OCC(COP(=O)([O-])OCC(COC(=O)CCC)OC(=O)CCC)OC(=O)CCCCCCCCCCCCC.[Mg+2]` (stereo not drawn) [SPPCT-800] the “body weight loss versus LPS (in words)” value ([1]; 48 hours and 72 hours after LPS treatment) was “significantly reduced”, the “wet lung weight/dry lung ratio” value ([1]; 72 hours) was “decreased” and the “lung index (lung weight/body weight×100)” value ([1]; 72 hours, P<0.05) was “reduced; also recorded: significantly decreased”. The lung weight ([1]; animals sacrificed at 72 hours, P=0.1100) was “tended to reduce”, the body weight loss ([1]; at 24 hours after LPS) was 14% and the body weight loss ([1]; at 48 hours after LPS, P<0.05 vs untreated LPS group) was 14%. The body weight loss ([1]; at 72 hours after LPS, P<0.05 vs untreated LPS group) was 8%, the inspiratory time ([2]; at 24 hours) was “Significant reductions” and the “pulmonary congestion index (PenH)” value ([2]; at 24 hours) was “Significant reductions”. The expiratory time ([2]; at 48 hours) was “significant reductions”, the “pulmonary congestion index (PenH)” value ([2]; at 48 hours) was “significant reductions” and the BALF protein content ([3]; 24 hours after LPS, single dose given as a preventive, P<0.05) was “significant reduction”. The BALF protein levels ([3]; at 72 hours, multidose treatment) was “major reductions”, the BALF neutrophil counts ([3]; at 72 hours, multidose treatment, P=0.1493, not statistically significant) was “reductions” and the “BALF total cell count” value ([3]; at 72 hours, multidose treatment, P=0.1714, not statistically significant) was “reductions”. For the same molecule, the “efficacy against ARDS” value ([4]; all three studies, best results in the 72-hour study) was “effective”, the “severe damage to the lung” value ([4]; single dose of 200 mg/kg, given 30 minutes before LPS challenge) was “significantly reduces” and the non-toxic dose [5] was “up to 800 mg/kg per day”.
